Data taken from patent US4221794A, “Method of imparting immunomodulating and antiviral activity” (Newport Pharmaceuticals International, Inc., priority 1979, dated 1980).
“Also recorded” adds a separate entry of the source.

Columns and labels:
spleen cells [1] = test: In vitro treatment of Con A stimulated mouse spleen cells; format: cell-based; settings: for ability to augment Con A stimulation (in words): compound 1 μg/ml, Con A 5 μg/ml
Protocol: The following day, each group was sacrificed and the spleens removed and pooled. […] The cell concentration of each preparation was determined by a Coulter counter and adjusted to 5×10^6 cells/ml with RPMI medium.
(§1) Microtiter assays were carried out in 0.2 ml incubations, containing 5×10^5 cells and Con A or Con A and compounds at the indicated concentrations. All assays were performed with 6 replicates and compared with a blank assay containing only cells. The assay plates were incubated at 37° in 5% CO2 for 4 days. During the final 18-20 hours of incubation, 0.5 ml of ^3 HTdR (10 μCi/ml, 6 Ci /m mole) were added to each culture. The cultures were harvested with a multiple automatic sample harvester (MASH) unit and the incorporated ^3 HTdR determined with a Beckman LS 8000 liquid scintillation counter, as a measure of cell proliferation.

spleen cells [2] = test: In vivo treatment of mice: effect on in vitro Con A stimulation of spleen cell proliferation; set-up: species or system male Balb/C mice
Protocol: The purpose of this study was to determine the effects of in vivo treatment of mice with the compounds NPT 15392 and 15410 on the subsequent activity of spleen cells isolated from these animals and evaluated in vitro for their proliferative response to the mitogen, Concanavalin A (Con A).
Nine male Balb/C mice, 8-9 weeks old, weighing 18-20 gms were divided into three groups. One group was treated twice daily (for 1 day), in the morning and afternoon, with an oral dose of NPT 15392 at 10 mg/kg. The second group was similarly treated with NPT 15410 at 20 mg/kg. A third group, dosed with saline served as a placebo control.
The following day, each group was sacrificed and the spleens removed and pooled. The spleens were minced and the cells washed in RPMI-1640 medium (Grand Island Biologicals) supplemental with 2 mm glutamine and antibiotics. The cell concentration of each preparation was determined by a Coulter counter and adjusted to 5×10^6 cells/ml with RPMI medium.
as §1, with “proliferation. The results are tabulated as the ratio of the activity in the Con A or Con A and compound treated cultures to the blank cultures.” for “proliferation.”

[3] = tested on: human peripheral blood lymphocytes; test: Mitogen (PHA) induced human lymphocyte proliferation; format: cell-based; settings: plus = immunostimulating, minus = immunoinhibiting, 0 = neither
immune response = test: Immunomodulating activity (overall); format: cell-based
From the text: The following three assay procedures are used to evaluate the ability of the test substances to modulate the activity of several classes of cells in the immune system. In these systems it is possible to identify both immunopotentiating activity (evidence by an enhancement of the parameter examined) as well as immunosuppressant activity (evidenced by an inhibition of the parameter examined).
(§2) Table 4 above presents the results of an evaluation of a number of these subject compounds as potentiators of the immune response. Three different test systems were used. The first involves a measure of the ability of the test compound to enhance the ability of mouse lymphocytes to proliferate in response to a plant mitogen (Con A). The second involves measuring the ability of the test compounds to enhance human lymphocyte proliferation in response to a second plant mitogen (PHA). The third system measures the ability of these test substances to enhance macrophage proliferation in response to a natural lymphokine (MMF, Macrophage Mitogenic Factor).

influenza virus = test: Anti-influenza activity (overall); format: cell-based, several strains of A and B sub-types; settings: for inhibit the replication of different strains of influenza virus (number of strains): concentrations ranging from 1-150 μg/ml
guinea pig macrophages = test: Lymphokine (MMF) induced guinea pig macrophage proliferation; format: cell-based; settings: plus = immunostimulating, minus = immunoinhibiting, 0 = neither
Protocol: 3. The macrophage represents a subpopulation of white blood cells which is an important component of the immune system in control of both cellular and humoral immunity. The assay system described below evaluates the substances studied as potentiators of macrophage function.
Phytohemagglutinin (PHA) (HA-17) was purchased from Burroughs Wellcome. A preparation containing Macrophage Mitogen Factor (MMF) and Macrophage Activating Factor (MAF) was prepared from antigen-stimulated immune lymph node lymphocytes (guinea pig) as previously described by Hadden et al, Nature 257, 483-485 (1975). […] The active fraction was employed in both the proliferation and activation assays.
Ficoll-hypaque purified human peripheral blood lymphocytes were prepared and PHA-induced lymphocyte proliferation was assayed by the incorporation of tritiated thymidine as described in Hadden et al., Cell. Immunol. 20, 98-103 (1975). Each compound was analyzed in the presence of suboptimal, optimal and supraoptimal concentrations of PHA (0.001, 0.01, 0.1 units/ml respectively). Paraffin oil-induced guinea pig peritoneal macrophages were prepared and incubated as monolayer culture (>98% pure macrophages). Lymphokine (MMF)-induced proliferation was assayed by the incorporation of tritiated thymidine at 3 and 5 days of culture as described, Hadden et al, Nature 257, 483-485 (1975). Lymphokine (MAF)-induced macrophage activation to kill Listeria monocytogenes following 5 days of culture in the presence or absence of MAF was performed during a 6 hour period as described in Hadden and England, Immunopharmacology, pages 87-100 (Plenum Press, 1977). Phagocytosis was quantitated during a 20-minute exposure to Listeria monocytogenes by counting the number of macrophages containing bacteria and the number of bacteria per phagocytic cell on gram stained monolayers in Labtek chambers. Intracellular killing of bacteria was evaluated by counting the number of cells containing bacteria and the number of bacteria/cell 6 hours after the initial 20 minute exposure. Parallel experiments in which macrophages were lysed and intracellular bacteria were cultured confirm the validity of bacterial activity determined by this manner in this system. The drugs were employed in each of the three systems over serial log concentration range in triplicate in the presence and absence of mitogen or lymphokine. Each type of experiment was performed at least three times. Previous experiments indicate a parallelism of response to pharmacologic modulation in the proliferation and achivation assays.
as §2

[4] = Con A 5 μg/ml (suboptimal), oral 15392 10 mg/kg, 15410 20 mg/kg

Row | Compound | fold induction at 1 µg/mL (spleen cells [1]; Mus musculus, 96 h, Con A 5 μg/l as printed, compound 1 μg/ml in vitro, read-out: stimulation over Con A alone) | ability to augment Con A stimulation (in words) (spleen cells [1]) | response of spleen cells to Con A after in vivo treatment (in words) (spleen cells [2]; [4]) | response of spleen cells to Con A after in vivo treatment (in words) (spleen cells [2]; Con A 10 μg/ml (more optimal)) | Maximum Percent Change, Mitogen Induced (PHA) Human Lymph. Prolif. ([3]; 1.0-10 (unit not given)) [%] | Maximum Percent Change, Mitogen Induced (PHA) Human Lymph. Prolif. ([3]; 10-100 (unit not given)) [%] | Maximum Percent Change, Mitogen Induced (PHA) Human Lymph. Prolif. ([3]; .01-1.0 (unit not given)) | potentiation of the immune response (in words) (immune response) | anti-influenza activity (in words) (influenza virus; compound by itself) | inhibit the replication of different strains of influenza virus (number of strains) (influenza virus) | Maximum Percent Change, Lymphokine Induced (MMF) Guinea Pig Mac. Prolif. (guinea pig macrophages; 1.0-10 (unit not given)) [%] | Maximum Percent Change, Lymphokine Induced (MMF) Guinea Pig Mac. Prolif. (guinea pig macrophages; .01-1.0 (unit not given)) [%] | stimulation over Con A alone (spleen cells [1]; Con A 5 μg/l as printed, compound 1 μg/ml in vitro, 5760 min) [fold] | Potentiation of immunopotentiation by DIP.PAcBA salt (immune response; salt compared with parent compound) | potentiation of anti-influenza activity by DIP.PAcBA salt (influenza virus)
1 | CCCCCC[C@H]([C@H](C)O)n1cnc2c(=O)[nH]cnc21 (relative stereo) [NPT 15392, ERYTHRO-9-(2-HYDROXY-3-NONYL)HYPOXANTHINE] | 2.8 | marked ability to augment the Con A stimulation | increases the subsequent response of the spleen cells | No significant differences | 20 | -50 | 11-15% | potentiation of the immune response has been observed | significant anti-influenza activity | at least 4 different strains | 23 | 33 | – | – | –
2 | CCCCCC[C@H]([C@H](C)O)n1cnc2c(=O)[nH]cnc21 (relative stereo) [NPT 15410] | – | marked ability to augment the Con A stimulation | increases the subsequent response of the spleen cells | No significant differences | 60 | – | – | potentiation of the immune response has been observed | – | at least 4 different strains | 23 | 12 | 3.3 | Yes | does not potentiate the anti-influenza activity; also recorded: equally active
